From US12187681B2 (Shanghai East Hospital, priority 2019, dated 2025)

What was measured:
[1] = target: T1, CaV1.2 (L-type voltage-dependent calcium channel; CACNA1C, CACNB2, CACNA2D1) (Homo sapiens, UniProt Q13936); assay: CaV1.2 channel whole-cell patch clamp (Ion Channel Activity Measurement); type: cell-based; details: human, room temperature; for inhibition at 5 min, 1 μM: pH 7.4, 1 μM test article; for inhibition at 5 min, 10 μM: pH 7.4, 10 μM test article, read-out: CaV 1.2 10 μM (ion-channel inhibition)
T1 construct: expressed in transfected cells; host or cells: CHO
T1 sequence (Q13936 1-2138 isoform Q13936-12): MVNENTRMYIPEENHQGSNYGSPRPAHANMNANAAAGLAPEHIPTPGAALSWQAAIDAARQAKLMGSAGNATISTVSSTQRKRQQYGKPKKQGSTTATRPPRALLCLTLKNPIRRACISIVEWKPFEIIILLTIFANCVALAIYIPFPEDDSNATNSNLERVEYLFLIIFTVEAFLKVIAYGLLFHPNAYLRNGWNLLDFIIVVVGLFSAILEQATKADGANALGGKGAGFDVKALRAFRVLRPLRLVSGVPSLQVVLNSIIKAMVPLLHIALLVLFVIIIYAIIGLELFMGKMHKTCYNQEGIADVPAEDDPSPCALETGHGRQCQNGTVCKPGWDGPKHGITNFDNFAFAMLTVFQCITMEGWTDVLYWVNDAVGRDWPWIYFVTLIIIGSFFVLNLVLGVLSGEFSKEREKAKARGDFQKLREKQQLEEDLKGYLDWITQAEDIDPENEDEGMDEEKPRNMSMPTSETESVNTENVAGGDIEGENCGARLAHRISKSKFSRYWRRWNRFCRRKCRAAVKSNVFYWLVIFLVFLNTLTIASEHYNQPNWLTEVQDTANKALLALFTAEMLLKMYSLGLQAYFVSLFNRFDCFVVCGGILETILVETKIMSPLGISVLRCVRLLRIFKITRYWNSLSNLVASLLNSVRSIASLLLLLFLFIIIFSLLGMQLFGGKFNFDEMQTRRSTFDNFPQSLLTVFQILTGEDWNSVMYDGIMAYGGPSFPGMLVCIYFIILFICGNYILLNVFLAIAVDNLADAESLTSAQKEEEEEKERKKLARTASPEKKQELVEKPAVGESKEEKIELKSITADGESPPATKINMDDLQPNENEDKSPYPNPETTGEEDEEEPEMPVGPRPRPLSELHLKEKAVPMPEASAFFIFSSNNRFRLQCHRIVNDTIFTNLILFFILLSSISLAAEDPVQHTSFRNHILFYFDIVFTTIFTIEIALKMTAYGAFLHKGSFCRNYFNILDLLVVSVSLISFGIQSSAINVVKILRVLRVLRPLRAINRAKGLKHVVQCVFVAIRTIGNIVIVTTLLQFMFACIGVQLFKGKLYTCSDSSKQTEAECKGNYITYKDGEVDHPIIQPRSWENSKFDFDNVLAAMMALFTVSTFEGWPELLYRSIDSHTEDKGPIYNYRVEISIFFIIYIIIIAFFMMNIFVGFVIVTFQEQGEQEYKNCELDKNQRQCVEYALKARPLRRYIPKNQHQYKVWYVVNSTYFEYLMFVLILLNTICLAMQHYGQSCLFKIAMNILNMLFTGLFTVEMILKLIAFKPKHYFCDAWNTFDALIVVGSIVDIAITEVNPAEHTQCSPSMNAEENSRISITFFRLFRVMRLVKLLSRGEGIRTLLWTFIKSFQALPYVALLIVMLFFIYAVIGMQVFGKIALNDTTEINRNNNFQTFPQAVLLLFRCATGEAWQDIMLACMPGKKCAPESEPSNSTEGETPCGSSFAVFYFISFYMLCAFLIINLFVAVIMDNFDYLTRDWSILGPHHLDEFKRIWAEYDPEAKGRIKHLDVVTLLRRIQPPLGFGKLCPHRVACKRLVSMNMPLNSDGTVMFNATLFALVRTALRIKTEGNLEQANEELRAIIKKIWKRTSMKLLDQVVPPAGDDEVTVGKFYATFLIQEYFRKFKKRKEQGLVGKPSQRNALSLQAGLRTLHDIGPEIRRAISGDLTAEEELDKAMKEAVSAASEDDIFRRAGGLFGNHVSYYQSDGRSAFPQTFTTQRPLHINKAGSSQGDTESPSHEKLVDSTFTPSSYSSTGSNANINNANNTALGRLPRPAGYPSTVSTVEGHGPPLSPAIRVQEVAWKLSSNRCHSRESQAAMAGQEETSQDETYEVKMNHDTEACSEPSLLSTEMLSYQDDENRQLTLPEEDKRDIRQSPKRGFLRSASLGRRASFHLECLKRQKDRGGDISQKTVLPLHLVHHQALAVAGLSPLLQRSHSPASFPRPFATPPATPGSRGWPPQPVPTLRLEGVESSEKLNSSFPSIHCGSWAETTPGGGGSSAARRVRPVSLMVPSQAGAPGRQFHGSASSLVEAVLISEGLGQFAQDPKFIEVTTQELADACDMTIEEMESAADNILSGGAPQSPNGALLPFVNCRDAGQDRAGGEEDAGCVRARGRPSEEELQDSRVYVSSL
T1 sequence (Q08289 1-605 isoform Q08289-2 partner): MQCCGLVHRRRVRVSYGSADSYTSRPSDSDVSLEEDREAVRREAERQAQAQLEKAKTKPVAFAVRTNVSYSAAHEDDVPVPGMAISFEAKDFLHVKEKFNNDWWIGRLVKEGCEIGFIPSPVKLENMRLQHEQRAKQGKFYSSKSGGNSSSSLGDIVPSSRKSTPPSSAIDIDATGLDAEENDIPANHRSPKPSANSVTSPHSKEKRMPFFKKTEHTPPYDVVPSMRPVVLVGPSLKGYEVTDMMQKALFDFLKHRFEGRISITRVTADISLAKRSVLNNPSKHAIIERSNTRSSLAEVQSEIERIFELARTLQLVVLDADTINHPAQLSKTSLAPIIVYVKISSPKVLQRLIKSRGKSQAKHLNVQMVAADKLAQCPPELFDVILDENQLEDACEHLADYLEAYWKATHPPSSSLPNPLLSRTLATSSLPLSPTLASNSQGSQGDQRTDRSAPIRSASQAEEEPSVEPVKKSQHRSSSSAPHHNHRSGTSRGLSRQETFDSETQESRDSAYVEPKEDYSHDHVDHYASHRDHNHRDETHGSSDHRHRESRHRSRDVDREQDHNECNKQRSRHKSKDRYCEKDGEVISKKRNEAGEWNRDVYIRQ
T1 sequence (P54289 25-1091 isoform P54289-2 partner limits assumed): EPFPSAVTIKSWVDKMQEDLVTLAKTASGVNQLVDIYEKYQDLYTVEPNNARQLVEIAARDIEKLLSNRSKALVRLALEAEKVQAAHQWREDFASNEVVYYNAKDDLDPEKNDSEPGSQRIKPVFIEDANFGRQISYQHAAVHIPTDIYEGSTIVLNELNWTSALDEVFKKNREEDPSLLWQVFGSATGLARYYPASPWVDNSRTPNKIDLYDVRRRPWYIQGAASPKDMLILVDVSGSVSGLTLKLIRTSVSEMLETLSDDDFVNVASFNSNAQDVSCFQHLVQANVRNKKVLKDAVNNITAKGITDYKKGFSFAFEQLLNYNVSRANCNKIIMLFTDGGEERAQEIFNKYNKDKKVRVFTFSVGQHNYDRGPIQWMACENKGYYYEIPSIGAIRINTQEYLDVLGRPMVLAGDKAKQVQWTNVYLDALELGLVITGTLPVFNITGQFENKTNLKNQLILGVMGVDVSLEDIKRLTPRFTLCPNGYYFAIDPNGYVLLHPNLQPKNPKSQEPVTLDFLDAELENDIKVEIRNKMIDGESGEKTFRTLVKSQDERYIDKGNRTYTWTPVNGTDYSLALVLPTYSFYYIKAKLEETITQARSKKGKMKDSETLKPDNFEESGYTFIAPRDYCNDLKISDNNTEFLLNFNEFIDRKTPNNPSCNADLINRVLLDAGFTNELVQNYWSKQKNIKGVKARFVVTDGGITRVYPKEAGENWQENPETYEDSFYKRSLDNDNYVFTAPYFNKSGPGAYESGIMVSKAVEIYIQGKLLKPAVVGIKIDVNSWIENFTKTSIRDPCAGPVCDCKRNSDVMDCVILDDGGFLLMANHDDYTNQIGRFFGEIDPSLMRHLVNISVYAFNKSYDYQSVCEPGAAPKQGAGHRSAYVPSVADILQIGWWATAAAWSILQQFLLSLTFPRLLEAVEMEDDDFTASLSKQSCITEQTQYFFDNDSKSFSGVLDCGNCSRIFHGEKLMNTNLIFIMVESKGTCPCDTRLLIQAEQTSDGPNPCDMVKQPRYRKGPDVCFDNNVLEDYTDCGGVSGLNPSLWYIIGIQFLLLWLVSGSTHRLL
T1 sequence (P54289 957-1103 partner limits assumed): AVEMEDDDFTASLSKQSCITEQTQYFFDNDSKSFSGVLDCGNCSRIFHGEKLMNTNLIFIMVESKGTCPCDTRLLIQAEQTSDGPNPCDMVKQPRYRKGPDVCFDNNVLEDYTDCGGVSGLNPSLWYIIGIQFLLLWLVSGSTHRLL
Experimental: • CHO cell line stably expressing human calcium channel, voltage-dependent, L type, • CACNA1C: cDNA strictly similar to GenBank accession number: NM_000719 • CACNB2: cDNA strictly similar to GenBank accession number: NM_000724 • CACNA2D1: cDNA strictly similar to GenBank accession number: NM_000722 Iks Channel Cell Line:
(§1) Cells expressing channels were cultured in medium supplemented with 20% FBS in HAM'S F12 culture dish. Cells grew in a humidified incubator at 37° C. under 5% carbon dioxide. To passage cells, remove poor medium and rinse the cells once with PBS 1X. […] Place plate on a 37° C. warming incubator 5 min. As soon as cells are detached, add 5 ml of 37° C. complete medium. Draw cell suspension into a sterile pipet and homogenize cells gently to dissociate cells aggregates. Amplify or maintain the cells by seeding 2.5*105 cells in a 6 cm dish (final volume: 5 ml). To maintain electrophysiological performances, cell density must not exceed 80%. On the day before patch clamp experiment, 3*103 cells were seeded on coverslips in the 24-well plate and incubated at 37° C. in 5% carbon dioxide.
Bath solution: 140 mM TEA-C1, 2 mM MgCl2·6H2O, 10 mM CaCl2, 10 mM HEPES, 5 mM D-glucose, pH=7.4 with TEA-OH. Pipette solution: 120 mM CsCl, 1 mM MgCl2·6H2O, 10 mM HEPES, 10 mM EGTA, 0.3 mM Na2-GTP, 4 mM Mg-ATP, pH=7.2 with CsOH.
(§2) Glass pipette (BF150-86-10, Sutter Instruments) was made by puller (P97, Sutter Instruments). The glass pipette was manipulated using Micro-manipulator (Carm-C-S, MCI Instruments) under the microscope (AE31EF-INV, Motic). After touching the cell, a slight suction was applied to achieve high seal (GΩ). Fast capacitance (in pF) compensation was made after high seal was achieved; after achieving high seal, the membrane was broken, Cell capacitance (in pF) compensation was made from whole-cell capacitance compensation after the whole cell mode was achieved. No leak subtraction was made.
(§3) Cell was incubated with the test article for 5 minutes, or until the current reached a steady-state level. Multiple concentrations of test article were tested. The test articles were applied gradually from low to high concentration. The test and control solutions were flown into a recording chamber mounted on the stage of an inverted microscope via a gravity-fed solution delivery system. During the experiment, solutions were withdrawn from the recording chamber by vacuum aspiration. Each concentration was tested at multiple times. Each cell acted as its own control. All tests were performed at room temperature (23-25° C.).
Cav1.2 current was recorded under a holding potential at −80 mV and then depolarized to +10 mV for 0.3 seconds. This protocol was repeated at 20 s intervals to observe the effect of test articles on the peak of Cav1.2 current.

[2] = target: T2, hERG (human ether-a-go-go related gene potassium channel, KCNH2) (Homo sapiens, UniProt Q12809); assay: hERG channel whole-cell patch clamp (Ion Channel Activity Measurement); type: cell-based; details: human, room temperature; for inhibition at 1 μM: pH 7.4, 1 μM test article; for inhibition at 10 μM: pH 7.4, 10 μM test article
T2 construct: expressed in transfected cells; host or cells: HEK293
T2 sequence (Q12809 whole entry): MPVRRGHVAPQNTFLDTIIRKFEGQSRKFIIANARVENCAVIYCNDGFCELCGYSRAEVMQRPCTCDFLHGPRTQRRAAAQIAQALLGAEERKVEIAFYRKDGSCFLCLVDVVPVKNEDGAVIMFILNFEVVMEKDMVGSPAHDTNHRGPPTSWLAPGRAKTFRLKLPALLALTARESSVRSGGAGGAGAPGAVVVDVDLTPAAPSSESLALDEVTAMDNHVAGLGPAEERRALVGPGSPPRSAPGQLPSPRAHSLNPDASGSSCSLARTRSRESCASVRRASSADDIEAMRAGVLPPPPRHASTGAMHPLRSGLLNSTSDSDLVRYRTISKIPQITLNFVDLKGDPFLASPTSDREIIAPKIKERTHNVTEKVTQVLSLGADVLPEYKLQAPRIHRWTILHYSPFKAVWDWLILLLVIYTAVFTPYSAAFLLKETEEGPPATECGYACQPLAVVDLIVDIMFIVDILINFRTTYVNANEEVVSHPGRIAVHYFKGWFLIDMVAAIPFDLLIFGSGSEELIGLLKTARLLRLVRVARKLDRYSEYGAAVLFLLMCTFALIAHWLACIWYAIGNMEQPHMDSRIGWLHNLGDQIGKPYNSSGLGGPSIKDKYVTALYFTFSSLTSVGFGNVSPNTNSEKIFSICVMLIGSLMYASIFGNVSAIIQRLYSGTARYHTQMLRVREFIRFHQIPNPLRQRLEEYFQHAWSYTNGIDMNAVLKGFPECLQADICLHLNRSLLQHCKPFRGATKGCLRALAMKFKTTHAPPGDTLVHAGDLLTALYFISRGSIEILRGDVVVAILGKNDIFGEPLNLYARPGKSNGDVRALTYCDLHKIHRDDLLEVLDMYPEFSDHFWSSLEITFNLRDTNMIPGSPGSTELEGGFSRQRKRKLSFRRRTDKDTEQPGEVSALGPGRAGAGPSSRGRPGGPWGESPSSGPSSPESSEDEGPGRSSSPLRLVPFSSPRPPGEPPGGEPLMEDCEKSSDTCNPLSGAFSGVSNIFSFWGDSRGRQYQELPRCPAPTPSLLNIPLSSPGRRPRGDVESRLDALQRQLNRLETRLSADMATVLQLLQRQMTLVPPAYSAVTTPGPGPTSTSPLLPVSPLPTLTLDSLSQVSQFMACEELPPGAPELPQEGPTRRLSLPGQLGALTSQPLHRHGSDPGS
Experimental: HEK293 cell line expressing the human ERG (ether-a-go-go related gene) potassium channel (Potassium voltage-gated channel subfamily H member 2). cDNA strictly similar to GenBank accession number: NM_000238
as §1, §2, §3
hERG current was recorded under a holding potential at −80 mV and then depolarized to 30 mV for 2.5 seconds to activate the hERG channel. The peak tail currents were induced by a repolarizing pulse to −50 mV for 4 seconds. This voltage-clamp pulse protocol was performed continuously during the experiment. An interpulse interval of 10 seconds allowed recovery from inactivation. An interpulse of −50 mV test for 0.5 second before 30 mV depolarized step was included for leak current correction

[3] = HEK293 cells expressing the human ERG potassium channel

CCN(CC)CCOc1c(C)cc2ccccc2c1Cc1c(O)c(C)cc2ccccc12 [Compound A108, 1-((2-(2-(diethylamino)ethoxy)-3-methylnaphthalen-1-yl)methyl)-3-methylnaphthalen-2-ol]
inhibition at 5 min, 1 μM [1]: < 25%
inhibition at 5 min, 10 μM [1]: 25 to 50%
inhibition at 1 μM [2, 3]: < 25%
inhibition at 10 μM [2, 3]: < 25%

COc1ccc2ccccc2c1Cc1c(OCC2CCNCC2)ccc2ccccc12 [Compound A271, 4-(((1-((2-methoxynaphthalen-1-yl)methyl)naphthalen-2-yl)oxy)methyl)piperidine]
inhibition at 5 min, 1 μM [1]: 50 to 75%
inhibition at 1 μM [2, 3]: 75 to 100%
inhibition at 10 μM [2, 3]: 75 to 100%

O=C(Nc1c(O)ccc2ccccc12)c1c(O)ccc2ccccc12 [Compound A044, 2-hydroxy-N-(2-hydroxynaphthalen-1-yl)-1-naphthamide]
inhibition at 5 min, 1 μM [1]: < 25%
inhibition at 5 min, 10 μM [1]: < 25%
inhibition at 1 μM [2, 3]: < 25%
inhibition at 10 μM [2, 3]: 25 to 50%

Oc1ccc2ccccc2c1Cc1c(OCCN2CCCCC2)ccc2ccccc12 [Compound A138, 1-((2-(2-(piperidin-1-yl)ethoxy)naphthalen-1-yl)methyl)naphthalen-2-ol]
inhibition at 5 min, 1 μM [1]: < 25%
inhibition at 5 min, 10 μM [1]: 75 to 100%
inhibition at 1 μM [2, 3]: 75 to 100%

O=C(O)c1ccc2c(Cc3c(O)ccc4ccccc34)c(O)ccc2c1 [Compound A114, 6-hydroxy-5-((2-hydroxynaphthalen-1-yl)methyl)-2-naphthoic acid]
inhibition at 5 min, 1 μM [1]: < 25%
inhibition at 5 min, 10 μM [1]: < 25%
inhibition at 1 μM [2, 3]: < 25%
inhibition at 10 μM [2, 3]: 50 to 75%

Oc1cccc2c1C(c1c(O)ccc3ccccc13)CCC2 (stereo not drawn) [Compound A077, 1′,2′,3′,4′-tetrahydro-[1,1′-binaphthalene]-2,8′-diol]
inhibition at 5 min, 1 μM [1]: < 25%
inhibition at 5 min, 10 μM [1]: < 25%
inhibition at 1 μM [2, 3]: < 25%
inhibition at 10 μM [2, 3]: 50 to 75%

COc1ccc(COCc2ccc3ccccc3c2C(O)c2c(COCc3ccc(OC)cc3)ccc3ccccc23)cc1 [Compound A080, bis(2-(((4-methoxybenzyl)oxy)methyl)naphthalen-1-yl)methanol]
inhibition at 5 min, 1 μM [1]: < 25%
inhibition at 5 min, 10 μM [1]: 25 to 50%
inhibition at 1 μM [2, 3]: < 25%
inhibition at 10 μM [2, 3]: < 25%

Oc1c(F)cc2ccccc2c1Cc1c(O)c(F)cc2ccccc12 [Compound A049, 1,1′-methylenebis(3-fluoronaphthalen-2-ol)]
inhibition at 5 min, 1 μM [1]: < 25%
inhibition at 5 min, 10 μM [1]: 50 to 75%
inhibition at 1 μM [2, 3]: < 25%
inhibition at 10 μM [2, 3]: 50 to 75%

c1ccc(COc2ccc3ccccc3c2Cc2c(OCCN3CCCC3)ccc3ccccc23)cc1 [Compound A291, 1-(2-((1-((2-(benzyloxy)naphthalen-1-yl)methyl)naphthalen-2-yl)oxy)ethyl)pyrrolidine]
inhibition at 5 min, 1 μM [1]: < 25%
inhibition at 1 μM [2, 3]: 75 to 100%

O=C(c1c(O)ccc2ccccc12)c1c(OCCN2CCCC2)ccc2ccccc12 [Compound A234, (2-hydroxynaphthalen-1-yl)(2-(2-(pyrrolidin-1-yl)ethoxy)naphthalen-1-yl)methanone]
inhibition at 5 min, 1 μM [1]: < 25%
inhibition at 5 min, 10 μM [1]: 75 to 100%
inhibition at 1 μM [2, 3]: 75 to 100%
inhibition at 10 μM [2, 3]: 75 to 100%

CCN(CC)CCNC(=O)c1ccc2ccccc2c1Cc1c(OC)ccc2ccccc12 [Compound A238, N-(2-(diethylamino)ethyl)-1-((2-methoxynaphthalen-1-yl)methyl)-2-naphthamide]
inhibition at 5 min, 1 μM [1]: 25 to 50%
inhibition at 5 min, 10 μM [1]: 75 to 100%
inhibition at 1 μM [2, 3]: 75 to 100%
inhibition at 10 μM [2, 3]: 75 to 100%

NC(=O)c1ccc2c(Cc3c(O)ccc4cc(C(N)=O)ccc34)c(O)ccc2c1 [Compound A123, 5,5′-methylenebis(6-hydroxy-2-naphthamide)]
inhibition at 5 min, 1 μM [1]: < 25%
inhibition at 5 min, 10 μM [1]: < 25%
inhibition at 1 μM [2, 3]: < 25%
inhibition at 10 μM [2, 3]: 25 to 50%

CCN(CC)CC(=O)Oc1ccc2ccccc2c1Cc1c(OC)ccc2ccccc12 [Compound A232, 1-((2-methoxynaphthalen-1-yl)methyl)naphthalen-2-yl diethylglycinate]
inhibition at 5 min, 1 μM [1]: < 25%
inhibition at 5 min, 10 μM [1]: 75 to 100%
inhibition at 1 μM [2]: 50 to 75%
inhibition at 10 μM [2]: 75 to 100%

Oc1ccc2c(c1Cc1c(O)ccc3c1CNCC3)CCCC2 [Compound A141-I-1, 8-((2-hydroxy-5,6,7,8-tetrahydronaphthalen-1-yl)methyl)-1,2,3,4-tetrahydroisoquinolin-7-ol]
inhibition at 5 min, 1 μM [1]: < 25%
inhibition at 5 min, 10 μM [1]: < 25%
inhibition at 1 μM [2, 3]: < 25%
inhibition at 10 μM [2, 3]: < 25%

CCN(CC)CCOc1ccc2ccccc2c1N(C)c1c(OC)ccc2ccccc12 [Compound A111-I-2, 2-(2-(diethylamino)ethoxy)-N-(2-methoxynaphthalen-1-yl)-N-methylnaphthalen-1-amine 2,2,2-trifluoroacetate]
inhibition at 5 min, 1 μM [1]: < 25%
inhibition at 5 min, 10 μM [1]: 25 to 50%
inhibition at 1 μM [2, 3]: 50 to 75%
inhibition at 10 μM [2, 3]: 75 to 100%

CC(C)Oc1ccc2ccccc2c1Cc1c(OCCN2CCCC2)ccc2ccccc12 [Compound A256, 1-(2-((1-((2-isopropoxynaphthalen-1-yl)methyl)naphthalen-2-yl)oxy)ethyl)pyrrolidine]
inhibition at 5 min, 1 μM [1]: < 25%
inhibition at 5 min, 10 μM [1]: 75 to 100%
inhibition at 1 μM [2, 3]: 50 to 75%
inhibition at 10 μM [2, 3]: 75 to 100%

Nc1cc(Cc2c(N)ccc3ccccc23)c2ccccc2c1 [Compound A022-2, 4-((2-aminonaphthalen-1-yl)methyl)naphthalen-2-amine]
inhibition at 5 min, 1 μM [1]: < 25%
inhibition at 5 min, 10 μM [1]: 25 to 50%
inhibition at 1 μM [2, 3]: < 25%
inhibition at 10 μM [2, 3]: 75 to 100%

Nc1ccc2ccccc2c1Cc1c(N)ccc2ccccc12 [Compound A022, 1,1′-methylenebis(naphthalen-2-amine)]
inhibition at 5 min, 1 μM [1]: < 25%
inhibition at 5 min, 10 μM [1]: 50 to 75%
inhibition at 1 μM [2]: < 25%
inhibition at 10 μM [2]: 50 to 75%

Oc1ccc2ccccc2c1Cc1c(OCCC2CCNCC2)ccc2ccccc12 [Compound A286, 1-((2-(2-(piperidin-4-yl)ethoxy)naphthalen-1-yl)methyl)naphthalen-2-ol]
inhibition at 5 min, 1 μM [1]: < 25%
inhibition at 5 min, 10 μM [1]: 75 to 100%
inhibition at 1 μM [2, 3]: 75 to 100%

CCN(CC)CCOc1ccc2ccccc2c1Cc1c(O)c(C)cc2ccccc12 [Compound A098, 1-((2-(2-(diethylamino)ethoxy)naphthalen-1-yl)methyl)-3-methylnaphthalen-2-ol]
inhibition at 5 min, 1 μM [1]: < 25%
inhibition at 5 min, 10 μM [1]: < 25%
inhibition at 1 μM [2, 3]: 25 to 50%
inhibition at 10 μM [2, 3]: 75 to 100%

Cc1ccc(O)c(Cc2c(O)ccc(C)c2C)c1C [Compound A017, 2,2′-methylenebis(3,4-dimethylphenol)]
inhibition at 5 min, 1 μM [1]: < 25%
inhibition at 5 min, 10 μM [1]: 25 to 50%
inhibition at 1 μM [2, 3]: < 25%
inhibition at 10 μM [2, 3]: 25 to 50%

Oc1ccc2c(c1Cc1c(O)ccc3ccccc13)CNCC2 [Compound A141, 8-((2-hydroxynaphthalen-1-yl)methyl)-1,2,3,4-tetrahydroisoquinolin-7-ol]
inhibition at 5 min, 1 μM [1]: < 25%
inhibition at 5 min, 10 μM [1]: < 25%
inhibition at 1 μM [2, 3]: < 25%
inhibition at 10 μM [2, 3]: 25 to 50%

Oc1ccc2ccccc2c1Cc1c(O)ccc2ccncc12 [Compound A109, 8-((2-hydroxynaphthalen-1-yl)methyl)isoquinolin-7-ol]
inhibition at 5 min, 1 μM [1]: 25 to 50%
inhibition at 5 min, 10 μM [1]: 50 to 75%
inhibition at 1 μM [2, 3]: < 25%
inhibition at 10 μM [2, 3]: 75 to 100%
